Kd and IC50 data for two molecules are collected here from ChEMBL document CHEMBL4043241, “Development and evaluation of 4-(pyrrolidin-3-yl)benzonitrile derivatives as inhibitors of lysine specific demethylase 1” (Bioorg Med Chem Lett, 2017).

A word on the Kd: it is the equilibrium constant for the complex coming apart. Read a low Kd as higher affinity. As a reminder, the IC50 is the concentration that gives 50% inhibition.

Test [1] concerns the target T1, Lysine-specific histone demethylase 1A (Homo sapiens, UniProt O60341). Kind of test: Binding affinity to LSD1 (unknown origin) by SPR analysis. (SPR reads the build-up and loss of mass on a sensor chip optically.)
Test [2] addresses Voltage-gated inwardly rectifying potassium channel KCNH2 (Homo sapiens, UniProt Q12809). Kind of test: Inhibition of human ERG expressed in CHO cells by Ionworks electrophysiology method. In kind it is cell-based. On the technique in general: The patch-clamp technique gives a direct electrical read-out from membranes.
The target in test [3] is T1, Lysine-specific histone demethylase 1A.
Description: Inhibition of recombinant human N-terminal truncated LSD1 (151 to 852 residues) expressed in Escherichia coli using histone H3(1-21)K4(Me1) biotin peptide as substrate measured after 30 mins by TR-FRET assay
In test [4] the target is T2, Amine oxidase [flavin-containing] A (Homo sapiens, UniProt P21397).
T2 sequence (P21397 whole entry): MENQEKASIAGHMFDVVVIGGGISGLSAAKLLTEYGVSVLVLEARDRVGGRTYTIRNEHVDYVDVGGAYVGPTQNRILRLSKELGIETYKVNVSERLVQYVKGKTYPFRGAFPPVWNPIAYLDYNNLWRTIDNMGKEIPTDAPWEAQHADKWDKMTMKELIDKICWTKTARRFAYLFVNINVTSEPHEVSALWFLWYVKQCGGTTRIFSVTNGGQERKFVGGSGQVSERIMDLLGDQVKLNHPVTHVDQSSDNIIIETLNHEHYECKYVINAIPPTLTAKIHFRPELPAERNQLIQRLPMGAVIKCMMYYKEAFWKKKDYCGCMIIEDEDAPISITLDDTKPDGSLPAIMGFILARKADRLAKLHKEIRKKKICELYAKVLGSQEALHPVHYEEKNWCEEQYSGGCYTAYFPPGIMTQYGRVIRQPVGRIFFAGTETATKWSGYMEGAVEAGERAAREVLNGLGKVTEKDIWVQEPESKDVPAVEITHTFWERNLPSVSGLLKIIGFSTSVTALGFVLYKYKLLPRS
In words: Inhibition of recombinant human MAO-A expressed in supersomes using kynuramine as substrate by LC-MS/MS analysis.

The target in test [5] is T3, Amine oxidase [flavin-containing] B (Homo sapiens, UniProt P27338).
T3 sequence (P27338 whole entry): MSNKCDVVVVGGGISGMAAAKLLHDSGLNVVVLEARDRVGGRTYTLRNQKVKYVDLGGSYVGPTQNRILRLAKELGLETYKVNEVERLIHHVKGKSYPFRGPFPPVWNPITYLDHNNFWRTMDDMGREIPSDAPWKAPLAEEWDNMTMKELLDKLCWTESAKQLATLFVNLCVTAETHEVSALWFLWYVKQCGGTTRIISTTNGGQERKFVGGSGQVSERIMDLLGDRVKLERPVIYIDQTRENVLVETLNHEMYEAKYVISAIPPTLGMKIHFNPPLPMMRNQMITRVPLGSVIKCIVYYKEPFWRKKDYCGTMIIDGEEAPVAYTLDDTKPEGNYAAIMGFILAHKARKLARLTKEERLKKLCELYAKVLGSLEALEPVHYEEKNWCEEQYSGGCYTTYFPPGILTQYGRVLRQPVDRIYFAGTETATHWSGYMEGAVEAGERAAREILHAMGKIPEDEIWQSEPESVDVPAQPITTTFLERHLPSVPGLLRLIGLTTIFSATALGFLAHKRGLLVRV
In words: Inhibition of recombinant human MAO-B expressed in supersomes using kynuramine as substrate by LC-MS/MS analysis.

Voltage-gated inwardly rectifying potassium channel KCNH2, sequence (Q12809 whole entry): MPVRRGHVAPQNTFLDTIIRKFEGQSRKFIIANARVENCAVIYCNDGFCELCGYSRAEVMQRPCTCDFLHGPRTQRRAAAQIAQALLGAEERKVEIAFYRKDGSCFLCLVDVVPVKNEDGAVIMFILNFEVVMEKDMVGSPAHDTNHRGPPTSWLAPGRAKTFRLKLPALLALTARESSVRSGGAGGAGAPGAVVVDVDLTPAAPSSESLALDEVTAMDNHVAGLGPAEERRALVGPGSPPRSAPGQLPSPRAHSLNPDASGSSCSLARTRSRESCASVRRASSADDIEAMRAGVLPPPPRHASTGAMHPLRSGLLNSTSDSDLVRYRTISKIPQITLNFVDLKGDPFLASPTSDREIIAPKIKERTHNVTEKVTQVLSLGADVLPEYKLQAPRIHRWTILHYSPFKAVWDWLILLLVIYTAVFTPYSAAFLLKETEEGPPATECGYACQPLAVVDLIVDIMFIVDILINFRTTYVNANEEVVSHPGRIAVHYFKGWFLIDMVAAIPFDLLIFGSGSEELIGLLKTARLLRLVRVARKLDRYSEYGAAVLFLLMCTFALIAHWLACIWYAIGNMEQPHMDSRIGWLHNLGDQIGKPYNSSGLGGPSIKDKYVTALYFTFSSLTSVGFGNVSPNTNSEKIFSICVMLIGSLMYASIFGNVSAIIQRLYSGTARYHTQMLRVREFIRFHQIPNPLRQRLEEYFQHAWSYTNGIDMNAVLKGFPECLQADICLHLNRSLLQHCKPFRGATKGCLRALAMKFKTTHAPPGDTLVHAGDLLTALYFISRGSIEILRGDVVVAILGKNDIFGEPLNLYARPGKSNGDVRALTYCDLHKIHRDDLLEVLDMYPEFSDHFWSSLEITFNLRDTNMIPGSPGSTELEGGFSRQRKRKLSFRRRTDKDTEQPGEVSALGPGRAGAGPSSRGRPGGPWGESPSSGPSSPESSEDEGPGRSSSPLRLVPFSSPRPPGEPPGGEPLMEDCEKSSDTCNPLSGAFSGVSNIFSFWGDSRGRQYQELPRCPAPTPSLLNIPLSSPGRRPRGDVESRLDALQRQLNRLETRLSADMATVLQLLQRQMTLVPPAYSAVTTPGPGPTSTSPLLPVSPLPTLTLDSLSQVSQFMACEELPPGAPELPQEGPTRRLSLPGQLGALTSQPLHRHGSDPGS

In test [1], `Cc1ccc(-c2ncc(OC[C@@H]3CCNC3)cc2-c2ccc(C#N)cc2)cc1` returned a Kd of 0.008 µM. Besides, the 50% inhibitory concentration (IC50) in test [2] was 3.2 µM; in test [3], 0.041 µM.

For `Cc1ccc([C@@H]2CN(C(=O)[C@H]3CC[C@H](CN)CC3)C[C@H]2c2ccc(C#N)cc2)cc1`, the IC50 in test [4] was over 25 µM; in test [5], over 25 µM; in test [2], 12.1 µM.
